Source: patent US9615577B2, “Herbicidally active cyclic dione compounds, or derivatives therefor, substituted by a phenyl which has an alkynyl-containing substituent” (Syngenta Limited, priority 2012, dated 2017)

Assays:
Format in all cases: in vivo
Avena fatua (AVEFA) [1] = test: Test 1B glasshouse assay for herbicidal activity, pre-emergence; conditions: 480 h, 125 g/ha, 20 DAA, read-out: percentage phytotoxicity AVEFA
Protocol: (§1) Seeds of a variety of monocotyledonous and dicotyledonous test plants are sown in standard soil in pots. The plants are cultivated for one day (for pre-emergence) or for about 12 days (range=10-13 days) (for post-emergence) under controlled conditions in a glasshouse (warm climate species at 24/18° C., cool climate species at 20/16° C., both at day/night; 16 hours light; 65% humidity).
(§2) An “instant formulation”, known as the “IF50”, containing 50 g/liter (i.e. 5% w/v) of the “technical” (i.e. unformulated) active ingredient is prepared by dissolving the active ingredient in a mixture of organic solvents and emulsifier, details of which are provided in the Table below. This IF50 is then mixed with a small, variable amount of acetone to aid dissolution, before addition of a 0.2% v/v aqueous solution of the adjuvant X-77 (which is a mixture of alkyl aryl polyoxyethylene glycols and free fatty acids in isopropanol, CAS Registry number 11097-66-8), as the aqueous diluent, to form an aqueous spray solution which contains a predetermined concentration of the active ingredient (which varies depending on the application rate of the active ingredient to the plants) and 0.2% v/v of the adjuvant X-77. This aqueous spray solution is then sprayed onto the plants, after one day's cultivation (for pre-emergence) or after about 12 days' cultivation (for post-emergence).
(§3) The test plants are then grown on, in a glasshouse (greenhouse) under controlled conditions (at either 24/18° C. or 20/16° C. (day/night) as mentioned above; 16 hours light; 65% humidity) and are watered twice daily. Either 15 days after application of the herbicide (15 DAA) (for post-emergence), or 20 days after application of the herbicide (20 DAA) (for pre-emergence), the test plants are evaluated visually, and an assessed percentage phytotoxicity score is given for each herbicidal application on each plant species (where 100%=total damage to plant; 0%=no damage to plant).
(§4) Cool climate (“cool season”) grassy monocotyledonous weeds: Alopecurus myosuroides (ALOMY), Avena fatua (AVEFA), Lolium perenne (LOLPE).

Lolium perenne (LOLPE) [2] = test: as above; conditions: 480 h, 125 g/ha, 20 DAA, read-out: percentage phytotoxicity LOLPE
Protocol: as §1, §2, §3, §4

[3] = test system: Alopecurus myosuroides (ALOMY); test: as above; conditions: 480 h, 125 g/ha, 20 DAA, read-out: percentage phytotoxicity ALOMY
Protocol: as §1, §2, §3, §4

[4] = test system: Glycine max (GLXMA, soybean); test: as above; conditions: 480 h, 125 g/ha, 20 DAA, read-out: percentage phytotoxicity GLXMA
Protocol: as §1, §2, §3
(§5) Warm climate crop plants: Glycine max (GLXMA, soybean).

Avena fatua (AVEFA) [5] = test: Test 1B glasshouse assay for herbicidal activity, post-emergence; conditions: 360 h; for pest or weed control at 30 g/ha: 30 g/ha application rate
Protocol: as §1, §2, §3, §4

Lolium perenne (LOLPE) [6] = test: as above; conditions: 360 h; for pest or weed control at 30 g/ha: 30 g/ha application rate
Protocol: as §1, §2, §3, §4

[7] = test system: Alopecurus myosuroides (ALOMY); test: as above; conditions: 360 h; for pest or weed control at 30 g/ha: 30 g/ha application rate
Protocol: as §1, §2, §3, §4

[8] = test system: Beta vulgaris (BEAVA, sugar beet); test: as above; conditions: 360 h; for plant injury at 30 g/ha: 30 g/ha application rate
Protocol: as §1, §2, §3
(§6) Cool climate crop plants: Triticum aestivum (TRZAW, winter wheat), Brassica napus (BRSNN, rape, also called oilseed rape or rapeseed), Beta vulgaris (BEAVA, sugar beet).

[9] = test system: Triticum aestivum (TRZAW, winter wheat); test: as above; conditions: 360 h; for plant injury at 30 g/ha: 30 g/ha application rate
Protocol: as §1, §2, §3, §6

[10] = test system: Brassica napus (BRSNN, rape); test: as above; conditions: 360 h; for plant injury at 30 g/ha: 30 g/ha application rate
Protocol: as §1, §2, §3, §6

Setaria faberi (SETFA) [11] = test: as above; conditions: 360 h; for pest or weed control at 30 g/ha: 30 g/ha application rate
Protocol: as §1, §2, §3
(§7) Warm climate (“warm season”) grassy monocotyledonous weeds: Setaria faberi (SETFA), SORVU (Sorghum bicolor (L.) Moench ssp. Bicolor, or Sorghum vulgare Pers.), Digitaria sanguinalis (DIGSA), Echinochloa crus-galli (ECHCG), and Brachiaria plantaginea (BRAPL).

[12] = test system: SORVU (Sorghum bicolor (L.) Moench ssp. Bicolor, or Sorghum vulgare Pers.); test: as above; conditions: 360 h; for pest or weed control at 30 g/ha: 30 g/ha application rate
Protocol: as §1, §2, §3, §7

[13] = test system: Digitaria sanguinalis (DIGSA); test: as above; conditions: 360 h; for pest or weed control at 30 g/ha: 30 g/ha application rate
Protocol: as §1, §2, §3, §7

[14] = test system: Glycine max (GLXMA, soybean); test: as above; conditions: 360 h; for plant injury at 30 g/ha: 30 g/ha application rate
Protocol: as §1, §2, §3, §5

Setaria faberi (SETFA) [15] = test: Test 1B glasshouse assay for herbicidal activity, pre-emergence; conditions: 480 h, 125 g/ha, 20 DAA, read-out: percentage phytotoxicity SETFA
Protocol: as §1, §2, §3, §7

[16] = test system: SORVU (Sorghum bicolor (L.) Moench ssp. Bicolor, or Sorghum vulgare Pers.); test: as above; conditions: 480 h, 125 g/ha, 20 DAA, read-out: percentage phytotoxicity SORVU
Protocol: as §1, §2, §3, §7

[17] = test system: Echinochloa crus-galli (ECHCG); test: as above; conditions: 480 h, 125 g/ha, 20 DAA, read-out: percentage phytotoxicity ECHCG
Protocol: as §1, §2, §3, §7

[18] = test system: Digitaria sanguinalis (DIGSA); test: as above; conditions: 480 h, 125 g/ha, 20 DAA, read-out: percentage phytotoxicity DIGSA
Protocol: as §1, §2, §3, §7

Row | SMILES | pest or weed control at 125 g/ha (Avena fatua (AVEFA) [1]) | pest or weed control at 125 g/ha (Lolium perenne (LOLPE) [2]) | pest or weed control at 125 g/ha [3] | plant injury at 125 g/ha [4] | pest or weed control at 30 g/ha (Avena fatua (AVEFA) [5]) | pest or weed control at 30 g/ha (Lolium perenne (LOLPE) [6]) | pest or weed control at 30 g/ha [7] | plant injury at 30 g/ha [8] | plant injury at 30 g/ha [10] | pest or weed control at 30 g/ha (Setaria faberi (SETFA) [11]) | pest or weed control at 30 g/ha [12] | pest or weed control at 30 g/ha [13] | plant injury at 30 g/ha [14] | pest or weed control at 125 g/ha (Setaria faberi (SETFA) [15]) | pest or weed control at 125 g/ha [16] | pest or weed control at 125 g/ha [17] | pest or weed control at 125 g/ha [18] | plant injury at 30 g/ha [9] | also measured
1 | Cc1cc(C#CCl)cc(C)c1C1C(=O)C2CCC(C2)C1=O (stereo not shown) [Compound A-6] | 40% | 80% | 60% | 0% | 50% | 40% | 50% | 40% | 40% | 100% | 90% | 100% | 0% | 80% | 80% | 60% | 100% | – | pest or weed control at 60 g/ha (Avena fatua (AVEFA) [5]; 60 g/ha application rate): 60%; pest or weed control at 60 g/ha (Lolium perenne (LOLPE) [6]; 60 g/ha application rate): 70%; pest or weed control at 60 g/ha ([7]; 60 g/ha application rate): 50%; plant injury at 60 g/ha ([8]; 60 g/ha application rate): 50%; plant injury at 60 g/ha ([9]; 60 g/ha application rate): 40%; plant injury at 60 g/ha ([10]; 60 g/ha application rate): 60%; pest or weed control at 60 g/ha (Setaria faberi (SETFA) [11]; 60 g/ha application rate): 100%; pest or weed control at 60 g/ha ([12]; 60 g/ha application rate): 90%; pest or weed control at 60 g/ha ([13]; 60 g/ha application rate): 100%; plant injury at 60 g/ha ([14]; 60 g/ha application rate): 0%
2 | Cc1cc(C#CCl)cc(C)c1C1C(=O)CC(CC2CCOCC2)CC1=O (stereo not shown) [Compound A-8] | – | – | – | – | 70% | 40% | 80% | 30% | 70% | 90% | 90% | 100% | 50% | – | – | – | – | 50% | –
3 | CC#Cc1cc(C)c(C2C(=O)CC(CC3CCOCC3)CC2=O)c(C)c1 (stereo not shown) [Compound A-9] | 80% | 100% | 80% | 10% | 70% | 60% | 80% | 0% | 50% | 90% | 80% | 100% | 60% | 100% | 90% | 90% | 100% | 60% | –
